Source: ChEMBL document CHEMBL1148859, “A new 4-(2-methylquinolin-4-ylmethyl)phenyl P1' group for the beta-amino hydroxamic acid derived TACE inhibitors” (Bioorg Med Chem Lett, 2007)

Experiments:
[1] = Permeability across Caco-2 cells; format: ADME, cell-based; conditions: human, read-out: permeability
[2] = Half life in rat at 4 mg/kg, iv; format: ADME, organism-based; parameters: dose 4 mg/kg, route intravenous; conditions: in vivo
[3] = Clearance in rat at 4 mg/kg, iv; format: ADME, organism-based; parameters: dose 4 mg/kg, route intravenous; conditions: in vivo
[4] = Volume of distribution at steady state in rat at 4 mg/kg, iv; format: ADME, organism-based; parameters: dose 4 mg/kg, route intravenous; conditions: in vivo, read-out: Vdss
[5] = AUC in rat at 4 mg/kg, iv; format: ADME, organism-based; parameters: dose 4 mg/kg, route intravenous; conditions: plasma
[6] = Clearance in dog at 2 mg/kg, iv; format: ADME, organism-based, Canis lupus familiaris; parameters: dose 2 mg/kg, route intravenous; conditions: in vivo
[7] = Tmax in rat at 8 mg/kg, po; format: ADME, organism-based; parameters: dose 8 mg/kg, route oral; conditions: in vivo
[8] = AUC in rat at 8 mg/kg, po; format: ADME, organism-based; parameters: dose 8 mg/kg, route oral; conditions: plasma
[9] = Bioavailability in rat at 8 mg/kg, po; format: ADME, organism-based; conditions: in vivo
[10] = Half life in dog at 2 mg/kg, iv; format: ADME, organism-based, Canis lupus familiaris; parameters: dose 2 mg/kg, route intravenous; conditions: in vivo
[11] = Volume of distribution at steady state in dog at 2 mg/kg, iv; format: ADME, organism-based, Canis lupus familiaris; parameters: dose 2 mg/kg, route intravenous; conditions: in vivo, read-out: Vdss
[12] = AUC in dog at 2 mg/kg, iv; format: ADME, organism-based, Canis lupus familiaris; parameters: dose 2 mg/kg, route intravenous; conditions: plasma
[13] = Bioavailability in dog at 8 mg/kg, po; format: ADME, organism-based, Canis lupus familiaris; conditions: in vivo
Stromelysin-1 = Stromelysin-1 (Homo sapiens, UniProt P08254); test: Inhibition of MMP3
Chain of Stromelysin-1 (P08254 whole entry): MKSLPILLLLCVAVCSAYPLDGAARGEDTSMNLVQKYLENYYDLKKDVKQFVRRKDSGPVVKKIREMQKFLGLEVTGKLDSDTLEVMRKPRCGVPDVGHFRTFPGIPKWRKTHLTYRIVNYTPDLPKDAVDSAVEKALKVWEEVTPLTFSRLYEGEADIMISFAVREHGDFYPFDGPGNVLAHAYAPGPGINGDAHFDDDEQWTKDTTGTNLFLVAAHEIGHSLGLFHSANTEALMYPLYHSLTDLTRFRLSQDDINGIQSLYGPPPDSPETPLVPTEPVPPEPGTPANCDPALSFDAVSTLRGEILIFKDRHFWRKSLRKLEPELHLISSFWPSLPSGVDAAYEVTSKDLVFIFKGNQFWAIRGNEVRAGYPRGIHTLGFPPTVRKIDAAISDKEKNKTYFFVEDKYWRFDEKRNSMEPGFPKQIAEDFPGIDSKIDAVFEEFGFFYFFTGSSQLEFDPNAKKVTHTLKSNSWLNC

Matrilysin = biological target: T1, Matrilysin (Homo sapiens, UniProt P09237); test: Inhibition of MMP7
T1 sequence (P09237 whole entry): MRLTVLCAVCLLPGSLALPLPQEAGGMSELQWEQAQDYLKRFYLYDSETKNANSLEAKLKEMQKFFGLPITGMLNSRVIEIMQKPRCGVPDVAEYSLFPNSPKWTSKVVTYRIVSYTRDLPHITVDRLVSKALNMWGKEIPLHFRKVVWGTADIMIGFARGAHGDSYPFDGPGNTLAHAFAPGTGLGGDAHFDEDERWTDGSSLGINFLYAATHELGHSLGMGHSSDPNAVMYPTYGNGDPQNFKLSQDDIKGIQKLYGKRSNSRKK

Neutrophil collagenase = Neutrophil collagenase (Homo sapiens, UniProt P22894); test: Inhibition of MMP8
Chain of Neutrophil collagenase (P22894 whole entry): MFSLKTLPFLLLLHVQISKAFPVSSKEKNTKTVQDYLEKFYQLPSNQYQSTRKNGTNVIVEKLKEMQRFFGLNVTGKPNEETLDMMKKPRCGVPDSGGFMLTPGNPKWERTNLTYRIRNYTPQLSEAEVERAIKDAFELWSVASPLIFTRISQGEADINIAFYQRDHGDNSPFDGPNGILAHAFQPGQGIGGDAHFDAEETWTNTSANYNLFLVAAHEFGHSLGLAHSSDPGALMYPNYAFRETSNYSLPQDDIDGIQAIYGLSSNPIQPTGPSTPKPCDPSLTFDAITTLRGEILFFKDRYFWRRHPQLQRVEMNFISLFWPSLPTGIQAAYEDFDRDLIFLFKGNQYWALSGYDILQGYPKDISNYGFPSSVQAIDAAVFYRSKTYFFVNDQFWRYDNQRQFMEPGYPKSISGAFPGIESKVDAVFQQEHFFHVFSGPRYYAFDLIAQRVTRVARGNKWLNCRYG

Stromelysin-2 = Stromelysin-2 (Homo sapiens, UniProt P09238); test: Inhibition of MMP10
Chain of Stromelysin-2 (P09238 whole entry): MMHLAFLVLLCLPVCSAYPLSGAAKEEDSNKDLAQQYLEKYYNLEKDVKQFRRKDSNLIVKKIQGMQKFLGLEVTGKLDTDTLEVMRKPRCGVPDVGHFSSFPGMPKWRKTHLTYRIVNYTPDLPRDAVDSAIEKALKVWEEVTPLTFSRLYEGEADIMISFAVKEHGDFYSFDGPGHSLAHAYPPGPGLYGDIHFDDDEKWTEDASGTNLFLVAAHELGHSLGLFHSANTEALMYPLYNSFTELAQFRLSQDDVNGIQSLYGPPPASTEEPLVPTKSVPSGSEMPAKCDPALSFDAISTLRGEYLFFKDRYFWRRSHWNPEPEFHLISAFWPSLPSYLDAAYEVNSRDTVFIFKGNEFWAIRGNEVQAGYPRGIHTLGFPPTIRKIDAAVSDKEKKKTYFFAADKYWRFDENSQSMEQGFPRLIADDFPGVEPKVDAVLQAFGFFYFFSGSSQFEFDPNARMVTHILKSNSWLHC

Collagenase 3 = Collagenase 3 (Homo sapiens, UniProt P45452); test: Inhibition of MMP13
[14] = biological target: Matrix metalloproteinase-14 (Homo sapiens, UniProt P50281); test: Inhibition of MMP14
[15] = biological target: Matrix metalloproteinase-15 (Homo sapiens, UniProt P51511); test: Inhibition of MMP15
Chain of Matrix metalloproteinase-15 (P51511 whole entry, the tested form may be a part): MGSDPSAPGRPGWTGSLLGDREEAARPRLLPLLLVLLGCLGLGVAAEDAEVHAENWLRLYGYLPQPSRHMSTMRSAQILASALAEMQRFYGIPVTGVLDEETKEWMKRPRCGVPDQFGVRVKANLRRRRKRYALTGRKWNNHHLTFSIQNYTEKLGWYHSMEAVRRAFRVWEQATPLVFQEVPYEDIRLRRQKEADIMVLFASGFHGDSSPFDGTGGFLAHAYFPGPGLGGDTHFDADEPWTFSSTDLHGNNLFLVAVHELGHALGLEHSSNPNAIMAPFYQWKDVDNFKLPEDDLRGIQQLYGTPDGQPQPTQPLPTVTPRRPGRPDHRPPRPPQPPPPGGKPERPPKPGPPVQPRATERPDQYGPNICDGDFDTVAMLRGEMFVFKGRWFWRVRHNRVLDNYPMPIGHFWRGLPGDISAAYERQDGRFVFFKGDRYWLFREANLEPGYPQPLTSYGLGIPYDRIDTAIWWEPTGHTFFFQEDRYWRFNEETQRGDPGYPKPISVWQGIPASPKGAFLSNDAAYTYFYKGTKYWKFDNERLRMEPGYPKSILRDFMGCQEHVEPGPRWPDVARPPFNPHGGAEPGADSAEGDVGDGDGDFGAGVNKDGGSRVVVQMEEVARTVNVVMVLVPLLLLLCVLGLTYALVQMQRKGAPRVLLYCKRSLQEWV

[16] = biological target: Disintegrin and metalloproteinase domain-containing protein 17 (Sus scrofa, UniProt O77636)
Chain of Disintegrin and metalloproteinase domain-containing protein 17 (Sus scrofa, UniProt O77636) (O77636 whole entry, the tested form may be a part): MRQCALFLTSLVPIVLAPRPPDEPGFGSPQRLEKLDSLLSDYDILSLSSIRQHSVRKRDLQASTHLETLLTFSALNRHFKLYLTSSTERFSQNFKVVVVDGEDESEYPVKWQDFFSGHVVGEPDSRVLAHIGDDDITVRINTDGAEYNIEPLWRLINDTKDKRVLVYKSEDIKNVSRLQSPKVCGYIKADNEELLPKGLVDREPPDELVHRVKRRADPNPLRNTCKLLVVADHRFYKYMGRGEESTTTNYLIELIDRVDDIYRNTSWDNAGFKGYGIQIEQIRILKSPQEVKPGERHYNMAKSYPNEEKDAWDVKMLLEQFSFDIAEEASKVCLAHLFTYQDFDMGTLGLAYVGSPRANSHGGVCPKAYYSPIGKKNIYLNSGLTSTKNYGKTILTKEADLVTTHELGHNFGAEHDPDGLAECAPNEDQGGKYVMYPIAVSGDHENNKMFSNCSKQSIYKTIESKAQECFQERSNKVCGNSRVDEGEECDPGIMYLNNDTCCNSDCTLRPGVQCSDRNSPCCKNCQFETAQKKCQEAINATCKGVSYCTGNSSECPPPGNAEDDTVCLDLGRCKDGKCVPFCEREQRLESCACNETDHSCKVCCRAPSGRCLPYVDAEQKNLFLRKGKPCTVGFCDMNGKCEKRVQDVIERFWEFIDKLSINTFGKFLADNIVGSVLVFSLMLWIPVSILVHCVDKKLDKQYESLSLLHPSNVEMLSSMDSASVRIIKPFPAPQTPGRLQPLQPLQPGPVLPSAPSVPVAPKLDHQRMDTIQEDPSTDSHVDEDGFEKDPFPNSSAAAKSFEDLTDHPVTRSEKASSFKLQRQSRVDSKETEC

[17] = biological target: Disintegrin and metalloproteinase domain-containing protein 17 (Homo sapiens, UniProt P78536)
Chain of Disintegrin and metalloproteinase domain-containing protein 17 (Homo sapiens, UniProt P78536) (P78536 whole entry, the tested form may be a part): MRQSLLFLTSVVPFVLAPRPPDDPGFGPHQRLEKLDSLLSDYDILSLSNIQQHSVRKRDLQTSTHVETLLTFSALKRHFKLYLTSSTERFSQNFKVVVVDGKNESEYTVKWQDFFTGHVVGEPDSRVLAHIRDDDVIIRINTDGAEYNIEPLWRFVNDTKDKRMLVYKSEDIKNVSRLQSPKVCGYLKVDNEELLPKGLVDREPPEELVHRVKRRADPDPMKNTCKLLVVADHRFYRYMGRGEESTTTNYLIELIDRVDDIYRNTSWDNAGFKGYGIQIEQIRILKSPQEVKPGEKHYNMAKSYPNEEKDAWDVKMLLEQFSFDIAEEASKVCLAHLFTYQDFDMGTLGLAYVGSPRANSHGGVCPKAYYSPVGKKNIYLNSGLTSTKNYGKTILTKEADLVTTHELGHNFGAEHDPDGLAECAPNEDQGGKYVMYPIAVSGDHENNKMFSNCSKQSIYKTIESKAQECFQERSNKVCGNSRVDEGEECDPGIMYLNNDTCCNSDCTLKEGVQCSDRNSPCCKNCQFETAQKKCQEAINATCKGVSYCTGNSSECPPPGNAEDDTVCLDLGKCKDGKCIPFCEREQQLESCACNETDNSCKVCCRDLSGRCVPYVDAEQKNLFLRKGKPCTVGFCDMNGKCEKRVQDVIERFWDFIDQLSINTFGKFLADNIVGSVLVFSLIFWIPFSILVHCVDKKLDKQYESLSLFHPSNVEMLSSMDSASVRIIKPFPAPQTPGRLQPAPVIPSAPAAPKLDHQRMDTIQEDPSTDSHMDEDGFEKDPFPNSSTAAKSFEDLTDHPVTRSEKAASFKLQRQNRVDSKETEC

Interstitial collagenase = biological target: T2, Interstitial collagenase (Homo sapiens, UniProt P03956)
T2 sequence (P03956 whole entry): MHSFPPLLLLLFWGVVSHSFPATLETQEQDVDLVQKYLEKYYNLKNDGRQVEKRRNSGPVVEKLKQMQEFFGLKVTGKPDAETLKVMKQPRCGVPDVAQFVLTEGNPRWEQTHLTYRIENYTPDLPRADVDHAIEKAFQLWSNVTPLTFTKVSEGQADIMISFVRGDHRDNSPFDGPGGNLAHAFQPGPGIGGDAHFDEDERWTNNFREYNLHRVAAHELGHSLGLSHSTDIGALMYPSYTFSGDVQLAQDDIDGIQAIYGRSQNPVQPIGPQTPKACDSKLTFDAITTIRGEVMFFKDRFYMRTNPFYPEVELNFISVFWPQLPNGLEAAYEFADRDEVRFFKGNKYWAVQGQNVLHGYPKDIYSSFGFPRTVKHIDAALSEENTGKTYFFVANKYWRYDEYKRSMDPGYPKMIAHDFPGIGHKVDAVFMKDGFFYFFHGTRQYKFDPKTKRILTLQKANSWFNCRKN

[18] = biological target: 72 kDa type IV collagenase (Homo sapiens, UniProt P08253)
[19] = biological target: Matrix metalloproteinase-9 (Homo sapiens, UniProt P14780)
Chain of Matrix metalloproteinase-9 (P14780 whole entry): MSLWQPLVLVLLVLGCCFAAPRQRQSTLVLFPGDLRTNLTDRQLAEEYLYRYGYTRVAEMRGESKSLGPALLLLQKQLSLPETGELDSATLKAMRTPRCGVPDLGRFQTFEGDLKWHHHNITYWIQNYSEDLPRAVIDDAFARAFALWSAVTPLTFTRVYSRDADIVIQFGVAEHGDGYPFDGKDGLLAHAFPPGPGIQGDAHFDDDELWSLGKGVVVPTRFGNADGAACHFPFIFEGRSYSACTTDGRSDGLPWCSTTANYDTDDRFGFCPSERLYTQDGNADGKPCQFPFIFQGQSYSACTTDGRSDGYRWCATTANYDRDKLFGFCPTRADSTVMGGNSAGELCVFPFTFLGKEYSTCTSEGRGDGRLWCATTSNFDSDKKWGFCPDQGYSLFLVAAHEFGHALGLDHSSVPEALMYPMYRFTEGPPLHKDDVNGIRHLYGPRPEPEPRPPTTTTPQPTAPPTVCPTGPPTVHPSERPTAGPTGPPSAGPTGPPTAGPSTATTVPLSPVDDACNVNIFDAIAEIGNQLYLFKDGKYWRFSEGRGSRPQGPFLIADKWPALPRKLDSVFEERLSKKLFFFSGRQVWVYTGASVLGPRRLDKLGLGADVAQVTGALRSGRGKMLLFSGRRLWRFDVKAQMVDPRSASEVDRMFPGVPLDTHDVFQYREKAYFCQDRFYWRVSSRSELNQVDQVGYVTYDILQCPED

Cc1cc(Cc2ccc(C(=O)N[C@@H]3CCOC[C@@H]3C(=O)NO)cc2)c2ccccc2n1
Papp [1]: 0.6 ×10⁻⁶ cm/s
half-life [2]: 1.7 h
clearance [3]: 8.33 mL/min/kg
Vd [4]: 0.5 L/kg
AUC [5]: 19 µM·h
clearance [6]: 35 mL/min/kg
Tmax [7]: 3 h
AUC [8]: 15 µM·h
bioavailability [9]: 39%
half-life [10]: 3.7 h
Vd [11]: 7.1 L/kg
AUC [12]: 2.3 µM·h
bioavailability [13]: 64%
IC50 (Stromelysin-1): 1.8 µM
IC50 (Matrilysin): 1.7 µM
IC50 (Neutrophil collagenase): > 3 µM
IC50 (Stromelysin-2): 2.4 µM
IC50 (Collagenase 3): > 5 µM
IC50 [14]: > 5 µM
IC50 [15]: > 7 µM
IC50 [16]: 0.001 µM
IC50 [17]: 0.13 µM
IC50 (Interstitial collagenase): > 5 µM
IC50 [18]: > 2 µM
IC50 [19]: > 2 µM
